The values that follow come from DBAASP.

Holding throughout (experiment): ≥ marks a high value that may be exact or a test limit, other limits are often not marked, values filed in µg/mL are converted to µM
The subject of assay [1] is Staphylococcus aureus ATCC 25923.
Assay [2] relates to Enterococcus faecalis ATCC 29212.
The test system of assay [3] is Klebsiella pneumoniae ATCC 13883.
Assay [4] relates to Candida albicans ATCC 90028.
Assay [5] concerns Staphylococcus aureus ATCC BAA-44.
For assay [6], the system named is Listeria ivanovii.
Assay [7] relates to Acinetobacter baumannii ATCC 19606.
Assay [8] relates to Escherichia coli ATCC 25922.
The test system of assay [9] is Candida parapsilosis ATCC 22019.
Assay [10] concerns Pseudomonas aeruginosa ATCC 27853.
In assay [11] the test system is Escherichia coli K88.
Assay [12] deals with Staphylococcus aureus CMCC 26003.
Assay [13] relates to Escherichia coli CVCC 245.
Assay [14] concerns Micrococcus luteus CVCC 28001.
Assay [15] relates to Listeria monocytogenes CVCC 1599.
The subject of assay [16] is Klebsiella pneumoniae ATCC 700603.
The subject of assay [17] is Staphylococcus epidermidis ATCC 35984.
Assay [18] concerns Enterococcus faecium ATCC 700221.
Assay [19] concerns Escherichia coli ESBL 63103.
Assay [20] has as its system Pseudomonas aeruginosa LES400.
Assay [21] has as its system Pseudomonas aeruginosa H103.
The subject of assay [22] is Staphylococcus aureus C623.
Assay [23] has as its system Pseudomonas aeruginosa 213.
The test system of assay [24] is Candida albicans C627.
The test system of assay [25] is Enterococcus faecium mic80.
Assay [26] deals with Candida albicans SC5314.
The test system of assay [27] is Candida krusei ATCC 6258.
In assay [28] the test system is Candida glabrata ATCC 15126.
The subject of assay [29] is Candida tropicalis ATCC 13803.
Assay [30] has as its system Pseudomonas aeruginosa PAO1.
Assay [31] has as its system Staphylococcus epidermidis ATCC 12228.
The subject of assay [32] is Bacillus subtilis CMCC 63501.
Assay [33] relates to Salmonella enterica subsp. enterica serovar Typhimurium ATCC 14028.
The test system of assay [34] is Staphylococcus aureus ATCC 29213.
Assay [35] deals with Salmonella typhimurium ATCC 7731.
Assay [36] deals with Salmonella enterica subsp. enterica serovar Pullorum C79-13.
Assay [37] relates to Salmonella enterica subsp. enterica serovar Typhimurium C77-31.
Assay [38] deals with Escherichia coli UB1005.
Assay [39] concerns Saccharomyces cerevisiae NBRC 10217.
In assay [40] the test system is Escherichia coli NBRC 14237.
The subject of assay [41] is Staphylococcus aureus NBRC 12732.
In assay [42] the test system is Micrococcus luteus NBRC 12708.

≈ marks a conversion by molar mass, not a printed value. Where “and” joins values, the source holds several entries; their conditions need not be identical. Identical values can stand only once.

As for `CC(C)C[C@H](NC(=O)[C@H](CCCN=C(N)N)NC(=O)CNC(=O)[C@H](Cc1ccccc1)NC(=O)[C@@H](N)Cc1ccccc1)C(=O)N[C@@H](CCCCN)C(=O)N[C@@H](CO)C(=O)N[C@H](C(=O)N[C@@H](Cc1c[nH]c2ccccc12)C(=O)N[C@@H](CO)C(=O)N[C@@H](C)C(=O)N[C@H](C(=O)N[C@@H](CCCCN)C(=O)N[C@@H](Cc1cnc[nH]1)C(=O)NCC(=O)N[C@@H](Cc1c[nH]c2ccccc12)C(=O)N[C@@H](CCCCN)C(=O)N[C@@H](C)C(=O)N[C@@H](C)C(=O)N[C@@H](CCCCN)C(=O)N[C@@H](CO)C(=O)N[C@@H](CCCN=C(N)N)C(=O)O)C(C)C)C(C)C` [FFGRLKSVWSAVKHGWKAAKSR], the minimal inhibitory concentration (MIC) in [1] turned out to be 3 µM (≈ 7.64 µg/mL); in assay [2], 12.5 µM (≈ 31.8 µg/mL); in [3], 6 µM (≈ 15.3 µg/mL); in assay [4] it was 25 µM (≈ 63.7 µg/mL); in assay [5], 3 µM (≈ 7.64 µg/mL); in assay [6], 3 µM (≈ 7.64 µg/mL). The MIC in assay [7] is 3 µM (≈ 7.64 µg/mL); in [8], 4.24 µM (≈ 10.8 µg/mL); in assay [9], at least 50 µM; in assay [10], 6 µM (≈ 15.3 µg/mL).
As for `CC[C@H](C)[C@H](NC(=O)[C@H](CCCCN)NC(=O)[C@H](CCCCN)NC(=O)[C@H](Cc1ccccc1)NC(=O)[C@H](CC(C)C)NC(=O)[C@H](CCCCN)NC(=O)[C@H](Cc1c[nH]c2ccccc12)NC(=O)[C@@H](N)CCCCN)C(=O)N[C@@H](Cc1ccccc1)C(=O)N[C@@H](CCCCN)C(=O)N[C@@H](CCCN=C(N)N)C(=O)N[C@H](C(=O)N[C@H](C(=O)N[C@@H](CCC(N)=O)C(=O)N[C@@H](CCCN=C(N)N)C(=O)N[C@H](C(=O)N[C@@H](CCCCN)C(=O)N[C@@H](CC(=O)O)C(=O)N[C@@H](Cc1ccccc1)C(=O)N[C@@H](CC(C)C)C(=O)N[C@@H](CCCN=C(N)N)C(=O)N[C@@H](CC(N)=O)C(=O)O)[C@@H](C)CC)C(C)C)[C@@H](C)CC` [KWKLFKKIFKRIVQRIKDFLRN], the minimal inhibitory concentration (MIC) is 0.688 µM (≈ 2 µg/mL) in assay [1]; 2.75 µM (≈ 8 µg/mL) in assay [11]; 2.41 µM (≈ 7 µg/mL) in assay [12]; 2.41 µM (≈ 7 µg/mL) in assay [13]; 5.51 µM (≈ 16 µg/mL) in assay [14]; 0.688 µM (≈ 2 µg/mL) in assay [15].
As to `CC(C)C[C@H](NC(=O)[C@H](Cc1cnc[nH]1)NC(=O)[C@H](Cc1ccc(O)cc1)NC(=O)[C@H](CCCN=C(N)N)NC(=O)[C@H](Cc1ccc(O)cc1)NC(=O)[C@H](CCCCN)NC(=O)[C@@H](N)CCCCN)C(=O)N[C@@H](CCCCN)C(=O)N1CCC[C@H]1C(=O)N[C@@H](Cc1ccccc1)C(=O)N[C@@H](CS)C(=O)N[C@@H](CCCCN)C(=O)N[C@@H](CCCCN)C(=O)O` [KKYRYHLKPFCKK], the minimal inhibitory concentration (MIC) in assay [1] is 294 µM (≈ 512 µg/mL); in assay [2] it was 294 µM (≈ 512 µg/mL); in assay [7] it was over 294 µM; in assay [8], 147 µM (≈ 256 µg/mL); in [16], over 294 µM; in assay [17], at least 73.6 µM. The MIC in assay [18] is at least 147 µM; in assay [10], over 294 µM.
Take `CC[C@H](C)[C@H](N)C(=O)N[C@@H](Cc1c[nH]c2ccccc12)C(=O)N[C@@H](CCCCN)C(=O)N[C@@H](CCCN=C(N)N)C(=O)N[C@@H](Cc1c[nH]c2ccccc12)C(=O)N[C@@H](Cc1c[nH]c2ccccc12)C(=O)N[C@@H](Cc1c[nH]c2ccccc12)C(=O)N[C@@H](CCCCN)C(=O)N[C@@H](CCCN=C(N)N)C(=O)O` [IWKRWWWKR]: the MIC was 88.6 µM (≈ 128 µg/mL) in assay [1]; at least 44.3 µM in [19]; at least 88.6 µM in assay [20]; at least 88.6 µM in assay [21]; at least 44.3 µM in assay [22]; at least 88.6 µM in [23]. In addition, the figures for the MIC in [24] and in assay [25] were 22.1 µM (≈ 32 µg/mL) and at least 88.6 µM, respectively.
As for `CC(C)C[C@H](NC(=O)[C@H](CC(C)C)NC(=O)[C@H](Cc1ccc(O)cc1)NC(=O)[C@H](CCCCN)NC(=O)[C@@H](N)CS)C(=O)N[C@@H](CCCN=C(N)N)C(=O)N[C@@H](Cc1c[nH]c2ccccc12)C(=O)N[C@@H](CCCN=C(N)N)C(=O)O` [CKYLLRWR], the MIC in assay [26] was at least 87.9 µM; in assay [27] it was at least 44 µM; in [9] it was at least 87.9 µM; in assay [28], 22 µM (≈ 25 µg/mL); in assay [29], at least 44 µM.
`CC[C@H](C)[C@H](NC(=O)[C@H](CCCCN)NC(=O)[C@H](CCCCN)NC(=O)[C@H](Cc1ccccc1)NC(=O)[C@H](CC(C)C)NC(=O)[C@H](CCCCN)NC(=O)[C@H](Cc1c[nH]c2ccccc12)NC(=O)[C@@H](N)CCCCN)C(=O)O` [KWKLFKKI]: the MIC is > 64 µM and 128 µM in [2]; over 64 µM in [30]; > 64 µM and 128 µM in assay [31]; at least 64 µM in assay [32]; > 64 µM and 128 µM in [33]; > 64 µM and 128 µM in assay [34]. Further, the MIC in [8] is 64 µM and 128 µM; in assay [35], at least 64 µM; in [36] it was at least 128 µM; in assay [37], at least 128 µM; in [38] it was at least 128 µM; in assay [10] it was > 64 µM and 128 µM.
Take `CC[C@H](C)[C@H](NC(=O)[C@H](CC(C)C)NC(=O)[C@@H]1CCCN1C(=O)[C@H](CC(C)C)NC(=O)[C@H](CCCCN)NC(=O)[C@H](CCCCN)NC(=O)[C@H](CC(C)C)NC(=O)[C@H](CC(C)C)NC(=O)[C@H](C)NC(=O)[C@@H](NC(=O)[C@H](Cc1ccccc1)NC(=O)CN)C(C)C)C(=O)N[C@@H](CC(C)C)C(=O)N[C@@H](CCCCN)C(=O)N[C@@H](Cc1cnc[nH]1)C(=O)N[C@@H](CC(C)C)C(=O)N1CCC[C@H]1C(N)=O` [GFVALLKKLPLILKHLP]: the MIC in assay [39] is 25 µM (≈ 47.5 µg/mL); in assay [40], 3.12 µM (≈ 5.93 µg/mL); in assay [41], 3.12 µM (≈ 5.93 µg/mL); in assay [42], 6.25 µM (≈ 11.9 µg/mL).

The term MIC denotes the least concentration at which growth counts as inhibited.
